The source of these data is ChEMBL document CHEMBL4382289, “Synthesis, Biological Evaluation and Structure-Activity Relationships of Diflapolin Analogues as Dual sEH/FLAP Inhibitors” (ACS Med Chem Lett, 2019).

The target in test [1] is T1, Bifunctional epoxide hydrolase 2 (Homo sapiens, UniProt P34913).
T1 sequence (P34913 whole entry): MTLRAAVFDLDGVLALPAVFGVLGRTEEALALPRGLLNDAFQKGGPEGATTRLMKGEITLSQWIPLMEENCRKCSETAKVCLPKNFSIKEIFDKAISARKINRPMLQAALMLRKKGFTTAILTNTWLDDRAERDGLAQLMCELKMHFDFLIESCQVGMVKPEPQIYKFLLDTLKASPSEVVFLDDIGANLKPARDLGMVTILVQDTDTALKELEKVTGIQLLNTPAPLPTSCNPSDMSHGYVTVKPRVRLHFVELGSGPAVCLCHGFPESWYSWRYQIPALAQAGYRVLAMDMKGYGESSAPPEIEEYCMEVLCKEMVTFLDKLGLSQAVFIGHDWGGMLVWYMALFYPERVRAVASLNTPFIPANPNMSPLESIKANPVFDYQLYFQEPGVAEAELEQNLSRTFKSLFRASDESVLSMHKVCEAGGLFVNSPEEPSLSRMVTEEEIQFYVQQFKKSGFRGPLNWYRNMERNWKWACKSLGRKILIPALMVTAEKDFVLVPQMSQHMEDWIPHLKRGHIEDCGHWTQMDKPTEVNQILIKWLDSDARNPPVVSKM
In words: Inhibition of recombinant human sEH preincubated for 10 mins followed by PHOME substrate addition and measured after 60 mins by fluorescence-based assay.

The target in test [2] is T2, Arachidonate 5-lipoxygenase-activating protein (Homo sapiens, UniProt P20292).
T2 sequence (P20292 whole entry): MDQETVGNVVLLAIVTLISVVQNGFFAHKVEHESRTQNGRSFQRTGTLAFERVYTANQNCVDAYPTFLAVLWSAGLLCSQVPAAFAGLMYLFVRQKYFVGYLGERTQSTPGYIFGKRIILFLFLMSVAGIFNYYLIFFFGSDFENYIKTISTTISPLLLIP
In words: Inhibition of 5-LO in human neutrophils preincubated for 10 mins followed by Ca2+ ionophore A23187 addition and measured after 10 mins by RP-HPLC analysis.

The IC50 is the midpoint of a concentration-inhibition curve.

As for `Cc1cc(OCc2nc3ccccc3s2)ccc1NC(=O)Nc1ccc(Cl)c(Cl)c1`, the IC50 in test [1] came out at 23 nM.
On to `O=C(Nc1ccc(CCc2nc3ccccc3s2)cc1)Nc1ccc(Cl)c(Cl)c1`, for which the values for the 50% inhibitory concentration (IC50) in test [2] and in test [1] were > 10000 nM and 11.7 nM, respectively.
`Cc1cc(OCc2nc3ccccc3s2)ccc1NC(=O)Nc1ccccc1Cl`: the IC50 in test [2] turned out to be 830 nM; in test [1] it was 1500 nM.
On to `O=C(Nc1ccc(Cl)cc1)Nc1ccc(OCc2nc3ccccc3s2)cc1`, for which the IC50 in test [2] is 1010 nM; in test [1], 13.9 nM.
Taken in the same sequence, the figures for `O=C(Nc1ccc(OCc2nc3ccccc3s2)cc1)Nc1cc(Cl)cc(Cl)c1` were 90 nM and 15.2 nM.
Taken in the same sequence, the figures for `Cc1cc(OCc2nc3ccccc3s2)ccc1NC(=O)Nc1cccc(Cl)c1` were 160 nM and 15.8 nM.
Turning to `Cc1cc(OCc2nc3ccccc3s2)ccc1NC(=O)Nc1cc(Cl)cc(Cl)c1`, the IC50 in test [2] stood at 80 nM; in test [1], 20 nM.
Taken in the same sequence, the figures for `Cc1cc(NC(=O)Nc2ccccc2)ccc1OCc1nc2ccccc2s1` were 2070 nM and 6.5 nM.
Taken in the same sequence, the figures for `Cc1cc(NC(=O)Nc2ccc(Cl)c(Cl)c2)ccc1OCc1nc2ccccc2s1` were 2170 nM and 0.6 nM.
Taken in the same sequence, the figures for `Cc1cc(NC(=O)Nc2ccccc2Cl)ccc1OCc1nc2ccccc2s1` were 680 nM and 35.1 nM.
Regarding `O=C(Nc1ccc(OCc2nc3ccccc3s2)cc1)Nc1cccc(Cl)c1`, the results for the IC50 in test [2] and in test [1] were 170 nM and 25.9 nM, respectively.
Taken in the same sequence, the figures for `Cc1cc(NC(=O)Nc2ccc(Cl)cc2)ccc1OCc1nc2ccccc2s1` were > 10000 nM and 4.1 nM.
Taken in the same sequence, the figures for `Cc1cc(OCc2nc3ccccc3s2)ccc1NC(=O)Nc1ccc(Cl)cc1` were 570 nM and 5.2 nM.
Taken in the same sequence, the figures for `O=C(Nc1ccc(OCc2nc3ccccc3s2)cc1)Nc1ccccc1Cl` were 360 nM and 279 nM.
For `Cc1cc(OCc2nc3ccccc3s2)ccc1NC(=O)Nc1ccccc1`, the IC50 in test [2] came to 730 nM; in test [1], 61.9 nM.
Regarding `Cc1cc(NC(=O)Nc2cc(Cl)cc(Cl)c2)ccc1OCc1nc2ccccc2s1`, the figures for the half-inhibitory concentration (IC50) in test [2] and in test [1] were 720 nM and 0.8 nM, respectively.
Taken in the same sequence, the figures for `O=C(Nc1ccc(SCc2nc3ccccc3s2)cc1)Nc1ccc(Cl)c(Cl)c1` were 1130 nM and 25.2 nM.
Taken in the same sequence, the figures for `O=C(Nc1ccc(/C=C/c2nc3ccccc3s2)cc1)Nc1ccc(Cl)c(Cl)c1` were 10800 nM and 9.1 nM.
Taken in the same sequence, the figures for `Cc1cc(NC(=O)Nc2cccc(Cl)c2)ccc1OCc1nc2ccccc2s1` were 2090 nM and 2 nM.
For the molecule `O=C(Nc1ccc(OCc2nc3ccccc3s2)cc1)Nc1ccc(Cl)c(Cl)c1`, the IC50 turned out to be 570 nM in test [2] and 10.3 nM in test [1].
Taken in the same sequence, the figures for `O=C(Nc1ccccc1)Nc1ccc(OCc2nc3ccccc3s2)cc1` were 420 nM and 111 nM.
